Laboratory results taken from ChEMBL document CHEMBL1201862, “PubChem BioAssay data set” (2004).
Calls of active or inactive are those of the source.

Columns and labels:
[1] = biological target: Tyrosine-protein phosphatase non-receptor type 12 (Homo sapiens, UniProt Q05209); test: SAR Selectivity Analysis of small molecule inhibitors of PEST using pCAP in a fluorescence assay. [Related pubchem assays (depositor defined):AID1779, AID1784, AID2135]; format: functional
[2] = biological target: T1, G-protein coupled receptor 35 (Homo sapiens, UniProt Q9HC97); test: SAR Analysis for the identification of Selective Antagonists of ERK1/2 Activity in GPR35-Overexpressing U2OS Cells. [Related pubchem assays: 2079, 2058 ]; format: functional, cell-based
[3] = biological target: T2, Tyrosine-protein phosphatase non-receptor type 22 (Homo sapiens, UniProt Q9Y2R2); test: LYP (PTPN22) phosphatase inhibitor potency, SAR follow-up, biochemical, pCAP fluorogenic substrate, fluorescence, set 3 (AID 449727); format: functional
T2 sequence (Q9Y2R2 whole entry): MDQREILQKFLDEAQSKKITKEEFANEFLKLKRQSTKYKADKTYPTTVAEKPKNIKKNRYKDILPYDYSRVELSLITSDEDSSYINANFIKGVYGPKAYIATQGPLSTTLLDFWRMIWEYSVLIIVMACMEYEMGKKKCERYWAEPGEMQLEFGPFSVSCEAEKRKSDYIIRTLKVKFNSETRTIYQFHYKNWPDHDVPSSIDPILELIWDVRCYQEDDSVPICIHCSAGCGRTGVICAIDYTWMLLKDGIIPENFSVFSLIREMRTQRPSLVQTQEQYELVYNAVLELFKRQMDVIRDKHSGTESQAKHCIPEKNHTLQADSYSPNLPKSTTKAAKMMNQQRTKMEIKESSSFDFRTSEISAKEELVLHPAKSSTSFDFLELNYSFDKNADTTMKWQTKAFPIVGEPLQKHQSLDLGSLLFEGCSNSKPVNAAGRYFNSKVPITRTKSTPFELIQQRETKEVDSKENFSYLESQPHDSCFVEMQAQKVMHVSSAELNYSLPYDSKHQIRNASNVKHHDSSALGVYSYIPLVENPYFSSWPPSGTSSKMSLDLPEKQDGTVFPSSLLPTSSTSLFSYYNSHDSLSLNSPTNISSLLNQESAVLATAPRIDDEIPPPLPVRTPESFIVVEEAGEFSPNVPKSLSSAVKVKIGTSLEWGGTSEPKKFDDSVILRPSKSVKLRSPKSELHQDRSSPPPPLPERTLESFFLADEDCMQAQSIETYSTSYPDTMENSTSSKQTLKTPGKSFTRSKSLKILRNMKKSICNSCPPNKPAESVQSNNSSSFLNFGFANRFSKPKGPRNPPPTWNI

[4] = biological target: T3, G-protein coupled receptor 55 (Homo sapiens, UniProt Q9Y2T6); test: GPR55 antagonists, SAR follow-up, counter-screen for GPR35 antagonist project, imaging, image-based (AID 2397); format: functional
[5] = biological target: T2, Tyrosine-protein phosphatase non-receptor type 22; test: SAR LYP1 Fluorescent Assay using OMFP substrate for In Vitro dose response studies - Set 3. [Related pubchem assays (depositor defined):AID1779, AID1784, AID2140, AID2686]; format: functional
[6] = biological target: T3, G-protein coupled receptor 55; test: GPR55 agonists via beta-arrestin recruitment, primary screen, imaging, U2OS cells, beta-arrestin-GFP redistribution (AID 1961); format: functional
[7] = biological target: T4, Tyrosine-protein phosphatase non-receptor type 7 (Homo sapiens, UniProt P35236); test: HePTP (PTPN7) phosphatase inhibitor potency, SAR follow-up, biochemical, set 2 (AID 449736); format: functional
T4 sequence (P35236 whole entry): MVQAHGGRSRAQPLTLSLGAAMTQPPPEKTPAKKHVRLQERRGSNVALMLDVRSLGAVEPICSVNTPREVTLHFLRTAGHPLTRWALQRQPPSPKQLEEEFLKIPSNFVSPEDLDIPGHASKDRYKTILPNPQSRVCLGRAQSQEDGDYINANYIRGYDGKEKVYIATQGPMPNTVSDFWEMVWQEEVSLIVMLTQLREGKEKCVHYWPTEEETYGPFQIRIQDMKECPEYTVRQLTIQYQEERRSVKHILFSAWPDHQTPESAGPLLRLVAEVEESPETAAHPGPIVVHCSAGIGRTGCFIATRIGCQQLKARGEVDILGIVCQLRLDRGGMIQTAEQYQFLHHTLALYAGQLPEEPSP

[8] = biological target: T1, G-protein coupled receptor 35; test: GPR35 antagonists blocking zaprinast-driven arrestin recruitment, primary screen, imaging, U2OS, beta-arrestin-GFP, zaprinast agonist (AID 2058); format: functional;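 further: antagonist potency meaning inhibition of agonist-induced arrestin redistribution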
[9] = biological target: SUMO E1/E2 (Homo sapiens, UniProt P63279+Q9UBE0+Q9UBT2); test: SAR analysis of SUMOylation using HTRF in an in-Vitro dose response assay. [Related pubchem assays (depositor defined):AID2006, AID2011, AID2018, AID2069, AID2658]; format: functional
[10] = biological target: T5, CAAX prenyl protease 2 (Saccharomyces cerevisiae S288c, UniProt Q03530); format: biochemical
T5 sequence (Q03530 whole entry): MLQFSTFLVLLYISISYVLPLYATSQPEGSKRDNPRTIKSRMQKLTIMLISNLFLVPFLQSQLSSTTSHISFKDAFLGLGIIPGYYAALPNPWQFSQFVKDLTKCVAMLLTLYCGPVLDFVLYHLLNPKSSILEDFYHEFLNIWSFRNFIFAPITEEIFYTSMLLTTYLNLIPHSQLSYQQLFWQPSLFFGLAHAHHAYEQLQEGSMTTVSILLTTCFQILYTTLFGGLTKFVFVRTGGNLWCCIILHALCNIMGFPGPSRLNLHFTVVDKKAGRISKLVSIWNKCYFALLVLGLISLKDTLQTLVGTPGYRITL

[11] = biological target: Trypsin (Sus scrofa, UniProt P00761); test: porcine trypsin inhibitors, dose response, selectivity assay for Rce1 protease inhibitor project, biochemical, quenched peptide fluorescence, cherry-pick (AID 488789)
[12] = biological target: T6, Replicative DNA helicase DnaB (Mycobacterium tuberculosis, UniProt P9WMR3); test: DnaB intein splicing inhibitors, dose response, biochemical, cell-free fluorescence (AID 449749); format: functional
T6 sequence (P9WMR3 whole entry): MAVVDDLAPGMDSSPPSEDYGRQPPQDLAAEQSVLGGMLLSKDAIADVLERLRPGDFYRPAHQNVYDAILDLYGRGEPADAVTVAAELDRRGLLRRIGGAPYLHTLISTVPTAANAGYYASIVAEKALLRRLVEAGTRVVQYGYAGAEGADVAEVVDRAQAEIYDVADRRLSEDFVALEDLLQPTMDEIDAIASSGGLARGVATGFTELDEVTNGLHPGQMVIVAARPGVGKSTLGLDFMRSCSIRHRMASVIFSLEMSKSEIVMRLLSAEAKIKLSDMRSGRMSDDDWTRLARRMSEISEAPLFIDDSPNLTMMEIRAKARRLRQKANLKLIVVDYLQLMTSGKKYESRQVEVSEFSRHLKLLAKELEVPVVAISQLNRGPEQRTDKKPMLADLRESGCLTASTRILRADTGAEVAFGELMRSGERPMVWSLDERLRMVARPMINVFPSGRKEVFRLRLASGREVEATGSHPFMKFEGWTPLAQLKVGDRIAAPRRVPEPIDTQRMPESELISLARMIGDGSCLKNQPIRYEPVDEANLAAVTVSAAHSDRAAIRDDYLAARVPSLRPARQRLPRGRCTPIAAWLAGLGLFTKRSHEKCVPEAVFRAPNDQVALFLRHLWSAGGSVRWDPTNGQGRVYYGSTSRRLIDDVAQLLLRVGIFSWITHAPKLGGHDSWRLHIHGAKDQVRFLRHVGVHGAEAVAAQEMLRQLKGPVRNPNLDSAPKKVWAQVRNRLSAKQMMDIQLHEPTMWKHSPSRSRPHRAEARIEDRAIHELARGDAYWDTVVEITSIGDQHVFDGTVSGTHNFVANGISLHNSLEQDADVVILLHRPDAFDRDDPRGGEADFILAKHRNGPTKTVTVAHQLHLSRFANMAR

[13] = biological target: T7, Coagulation factor XII (Homo sapiens, UniProt P00748); test: FXIIa inhibitor potency, concentration-response, biochemical (AID 716); format: functional
T7 sequence (P00748 whole entry): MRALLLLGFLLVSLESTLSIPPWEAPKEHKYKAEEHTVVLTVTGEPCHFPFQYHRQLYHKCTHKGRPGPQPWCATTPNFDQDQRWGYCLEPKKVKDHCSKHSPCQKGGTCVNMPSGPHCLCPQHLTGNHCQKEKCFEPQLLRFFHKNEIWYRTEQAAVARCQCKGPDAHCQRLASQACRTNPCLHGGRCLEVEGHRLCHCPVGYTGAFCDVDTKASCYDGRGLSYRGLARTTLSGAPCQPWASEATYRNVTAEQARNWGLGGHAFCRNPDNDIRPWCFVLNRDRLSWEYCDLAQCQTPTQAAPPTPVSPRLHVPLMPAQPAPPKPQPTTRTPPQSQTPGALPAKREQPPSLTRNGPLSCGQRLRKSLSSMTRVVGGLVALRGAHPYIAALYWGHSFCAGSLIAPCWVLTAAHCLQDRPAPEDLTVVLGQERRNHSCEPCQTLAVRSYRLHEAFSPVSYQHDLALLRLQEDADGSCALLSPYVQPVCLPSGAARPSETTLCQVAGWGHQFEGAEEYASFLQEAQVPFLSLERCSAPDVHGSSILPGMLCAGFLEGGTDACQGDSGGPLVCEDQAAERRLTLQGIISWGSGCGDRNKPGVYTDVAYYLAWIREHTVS

[14] = biological target: T8, Protein RecA (Mycobacterium tuberculosis, UniProt P9WHJ3); test: Fluorescence Cell-Free Homogeneous Dose Retest to Identify Inhibitors of RecA-Intein Splicing Activity. [Related pubchem assays (depositor defined):AID2097, AID2223, AID489010, AID492950]; format: functional
T8 sequence (P9WHJ3 whole entry): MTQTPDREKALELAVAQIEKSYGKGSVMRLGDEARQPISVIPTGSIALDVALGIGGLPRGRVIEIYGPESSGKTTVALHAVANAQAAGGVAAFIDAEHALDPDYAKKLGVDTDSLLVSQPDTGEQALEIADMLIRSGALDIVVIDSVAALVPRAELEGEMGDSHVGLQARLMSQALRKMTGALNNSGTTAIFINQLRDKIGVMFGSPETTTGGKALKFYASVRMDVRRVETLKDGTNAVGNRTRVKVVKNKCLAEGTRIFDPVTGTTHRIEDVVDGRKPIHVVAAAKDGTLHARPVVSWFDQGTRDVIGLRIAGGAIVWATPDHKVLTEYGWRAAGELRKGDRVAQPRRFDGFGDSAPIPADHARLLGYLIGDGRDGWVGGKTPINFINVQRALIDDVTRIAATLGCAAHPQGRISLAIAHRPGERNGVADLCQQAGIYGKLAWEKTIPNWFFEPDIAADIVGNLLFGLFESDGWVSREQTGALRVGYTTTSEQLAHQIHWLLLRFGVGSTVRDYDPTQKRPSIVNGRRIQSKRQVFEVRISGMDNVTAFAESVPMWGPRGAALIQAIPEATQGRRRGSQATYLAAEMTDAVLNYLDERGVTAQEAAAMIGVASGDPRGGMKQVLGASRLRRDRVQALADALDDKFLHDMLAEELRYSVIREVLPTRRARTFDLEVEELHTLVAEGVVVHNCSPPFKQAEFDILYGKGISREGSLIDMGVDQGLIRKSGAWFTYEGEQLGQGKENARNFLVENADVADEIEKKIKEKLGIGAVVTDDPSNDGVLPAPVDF

[15] = biological target: CAAX prenyl protease 1 (Saccharomyces cerevisiae S288c, UniProt P47154); test: Ste24 protease inhibitors, dose response, biochemical, S. cerevisiae, plate reader, cherry-pick (AID 488815)
[16] = biological target: T9, CAAX prenyl protease 2 (Homo sapiens, UniProt Q9Y256); test: human Rce1 protease inhibitors, dose response, biochemical, yeast membranes, quenched-peptide fluorescence, cherry-pick (AID 588849)
T9 sequence (Q9Y256 whole entry): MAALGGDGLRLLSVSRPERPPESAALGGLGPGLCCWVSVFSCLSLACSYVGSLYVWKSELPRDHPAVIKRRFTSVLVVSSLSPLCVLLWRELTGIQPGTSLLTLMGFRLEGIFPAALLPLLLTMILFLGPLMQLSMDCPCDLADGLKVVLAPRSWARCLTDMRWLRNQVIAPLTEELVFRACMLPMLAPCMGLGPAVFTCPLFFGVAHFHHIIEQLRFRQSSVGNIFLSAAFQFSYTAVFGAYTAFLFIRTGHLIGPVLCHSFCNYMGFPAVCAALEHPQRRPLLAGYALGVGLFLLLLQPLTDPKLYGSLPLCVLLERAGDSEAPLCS

[17] = inhibitors of SNCA 5'UTR-driven reporter translation, confirmation, H4 neuroglioma cells, luminescence (AID 1988); format: functional, cell-based
[18] = system: H9c2; test: cells; format: functional, cell-based; conditions: Rattus norvegicus, H9c2, Myocardium;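 further: confirmatory concentration-response retest of ultra-high-throughput screening hits for modulation of myocardial damage; cell death induced by hydrogen peroxide oxidative stress; compound pretreatment for 60 min then peroxide exposure for 2 h; potency is for protecting the cells against peroxide damage rather than for killing them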
[19] = growth induction of Burl-1 ts yeast mutant, dose response, counter-screen for SUMOylation pathway inhibitor project, whole organism, S. cerevisiae, luminescence (AID 463199); format: functional
[20] = Luminescence Cell-Based Dose Response HTS to Identify Inhibitors of 5'UTR Stem-Loop Driven Prion Protein mRNA Translation in H4 Neuroglioblastoma Cells. [Related pubchem assays: 1827 (Project Summary), 1813 (Primary HTS)]; format: functional
[21] = inhibitors of firefly luciferase expression or activity, dose response, H4 neuroglioma cells, luminescence (AID 1990); format: functional, cell-based

T1 sequence (Q9HC97 whole entry): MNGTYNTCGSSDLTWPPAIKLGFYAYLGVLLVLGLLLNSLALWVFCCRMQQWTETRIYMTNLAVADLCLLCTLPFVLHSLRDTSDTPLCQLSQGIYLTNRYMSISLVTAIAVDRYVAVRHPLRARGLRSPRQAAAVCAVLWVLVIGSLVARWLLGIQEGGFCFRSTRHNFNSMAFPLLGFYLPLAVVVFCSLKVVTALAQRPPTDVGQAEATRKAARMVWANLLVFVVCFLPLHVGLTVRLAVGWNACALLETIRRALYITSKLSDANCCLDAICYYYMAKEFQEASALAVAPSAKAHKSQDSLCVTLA
T3 sequence (Q9Y2T6 whole entry): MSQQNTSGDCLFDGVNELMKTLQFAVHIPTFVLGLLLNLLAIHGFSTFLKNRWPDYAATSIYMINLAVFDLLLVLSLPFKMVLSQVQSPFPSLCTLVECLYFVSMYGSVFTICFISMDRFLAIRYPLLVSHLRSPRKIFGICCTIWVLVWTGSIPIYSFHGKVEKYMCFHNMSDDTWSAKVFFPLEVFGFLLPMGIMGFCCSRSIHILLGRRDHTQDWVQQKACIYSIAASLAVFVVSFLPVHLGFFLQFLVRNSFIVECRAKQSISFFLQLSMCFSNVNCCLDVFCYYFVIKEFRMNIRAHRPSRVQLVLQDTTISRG
Chain of CAAX prenyl protease 1 (P47154 whole entry): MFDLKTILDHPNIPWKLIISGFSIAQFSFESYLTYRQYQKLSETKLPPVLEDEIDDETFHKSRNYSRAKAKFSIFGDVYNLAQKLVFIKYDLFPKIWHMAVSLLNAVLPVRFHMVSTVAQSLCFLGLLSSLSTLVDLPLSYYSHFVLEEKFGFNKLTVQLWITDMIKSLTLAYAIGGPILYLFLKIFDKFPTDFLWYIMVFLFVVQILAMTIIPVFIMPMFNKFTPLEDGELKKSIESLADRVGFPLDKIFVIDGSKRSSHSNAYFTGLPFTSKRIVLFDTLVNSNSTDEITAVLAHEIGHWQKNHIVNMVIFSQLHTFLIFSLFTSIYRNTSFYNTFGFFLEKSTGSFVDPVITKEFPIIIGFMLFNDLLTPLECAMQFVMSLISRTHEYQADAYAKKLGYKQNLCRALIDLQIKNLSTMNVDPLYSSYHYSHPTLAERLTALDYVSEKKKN
Chain of Trypsin (P00761 whole entry): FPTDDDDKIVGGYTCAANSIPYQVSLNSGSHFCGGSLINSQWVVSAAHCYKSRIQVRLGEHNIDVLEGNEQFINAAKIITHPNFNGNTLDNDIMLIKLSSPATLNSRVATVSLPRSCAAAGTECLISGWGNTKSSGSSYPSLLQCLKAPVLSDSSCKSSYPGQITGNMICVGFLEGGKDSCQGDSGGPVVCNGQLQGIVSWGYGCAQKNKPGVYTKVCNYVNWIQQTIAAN
Chain of Tyrosine-protein phosphatase non-receptor type 12 (Q05209 whole entry): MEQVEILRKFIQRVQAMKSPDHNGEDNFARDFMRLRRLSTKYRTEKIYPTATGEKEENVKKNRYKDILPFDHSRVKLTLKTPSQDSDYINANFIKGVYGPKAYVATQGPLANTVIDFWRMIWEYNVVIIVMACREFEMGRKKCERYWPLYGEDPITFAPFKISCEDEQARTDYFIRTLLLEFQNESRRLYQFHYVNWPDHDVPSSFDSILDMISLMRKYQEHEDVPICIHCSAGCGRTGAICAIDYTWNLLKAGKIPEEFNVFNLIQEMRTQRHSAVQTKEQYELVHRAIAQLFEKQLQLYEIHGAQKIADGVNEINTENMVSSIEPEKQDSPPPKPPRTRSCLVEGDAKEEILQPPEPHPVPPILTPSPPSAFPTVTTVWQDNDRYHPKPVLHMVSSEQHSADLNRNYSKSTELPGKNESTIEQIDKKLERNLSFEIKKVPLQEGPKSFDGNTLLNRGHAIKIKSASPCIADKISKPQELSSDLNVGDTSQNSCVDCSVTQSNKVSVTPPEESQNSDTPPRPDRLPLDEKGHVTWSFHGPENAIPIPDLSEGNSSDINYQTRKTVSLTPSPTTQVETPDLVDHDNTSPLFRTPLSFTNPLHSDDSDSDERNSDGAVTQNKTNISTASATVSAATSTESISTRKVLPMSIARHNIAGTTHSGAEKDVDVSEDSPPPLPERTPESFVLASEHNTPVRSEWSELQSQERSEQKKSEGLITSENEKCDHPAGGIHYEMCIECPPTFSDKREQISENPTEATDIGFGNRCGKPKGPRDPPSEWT
Chain of SUMO E1/E2 (Q9UBE0 whole entry): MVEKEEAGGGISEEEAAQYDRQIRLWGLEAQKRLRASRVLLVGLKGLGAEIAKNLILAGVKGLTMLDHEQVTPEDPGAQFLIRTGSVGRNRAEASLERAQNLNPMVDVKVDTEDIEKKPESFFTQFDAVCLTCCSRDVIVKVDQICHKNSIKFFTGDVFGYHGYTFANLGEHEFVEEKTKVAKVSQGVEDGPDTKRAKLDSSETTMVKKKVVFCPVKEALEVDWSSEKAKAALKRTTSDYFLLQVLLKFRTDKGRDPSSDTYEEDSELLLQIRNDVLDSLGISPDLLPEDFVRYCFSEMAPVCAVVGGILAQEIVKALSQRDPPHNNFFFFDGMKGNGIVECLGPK
Chain of SUMO E1/E2 (Q9UBT2 whole entry): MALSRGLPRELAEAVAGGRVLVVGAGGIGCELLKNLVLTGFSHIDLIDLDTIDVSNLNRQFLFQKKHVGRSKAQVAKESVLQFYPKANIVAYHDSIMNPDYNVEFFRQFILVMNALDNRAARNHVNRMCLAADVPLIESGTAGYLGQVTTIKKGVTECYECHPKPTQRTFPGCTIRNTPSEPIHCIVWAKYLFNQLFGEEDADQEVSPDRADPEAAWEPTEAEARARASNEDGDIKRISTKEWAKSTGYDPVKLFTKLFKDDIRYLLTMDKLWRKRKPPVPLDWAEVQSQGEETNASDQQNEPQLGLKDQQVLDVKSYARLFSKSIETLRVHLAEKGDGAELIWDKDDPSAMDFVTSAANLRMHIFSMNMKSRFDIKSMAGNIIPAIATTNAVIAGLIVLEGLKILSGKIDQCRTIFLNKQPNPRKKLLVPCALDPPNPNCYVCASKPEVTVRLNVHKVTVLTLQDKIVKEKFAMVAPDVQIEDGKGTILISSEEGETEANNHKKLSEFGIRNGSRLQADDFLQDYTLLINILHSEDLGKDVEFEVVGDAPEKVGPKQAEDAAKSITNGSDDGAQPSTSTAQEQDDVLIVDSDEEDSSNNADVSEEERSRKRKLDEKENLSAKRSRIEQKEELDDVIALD
Chain of SUMO E1/E2 (P63279 whole entry): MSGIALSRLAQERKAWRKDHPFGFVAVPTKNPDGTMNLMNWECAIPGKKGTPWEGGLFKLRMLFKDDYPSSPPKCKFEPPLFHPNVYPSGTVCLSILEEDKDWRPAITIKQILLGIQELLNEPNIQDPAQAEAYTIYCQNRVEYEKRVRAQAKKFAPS

Cc1ccc(/C=C2\SC(=S)N(CCCC(=O)Nc3cccc(C(=O)O)c3)C2=O)cc1
inactive: IC50 [4] > 32 µM
active: IC50 [1] 15.9 µM | IC50 [2] 1.39 µM | IC50 [3] 39 µM | IC50 [5] 30.2 µM | EC50 [6] 1.45 µM | IC50 [7] 2.79 µM | IC50 [8] < 0.5 µM

O=S(=O)(Nc1ccccc1F)c1ccc2c(c1)C1C=CCC1C(c1ccc(F)cc1)N2 (stereo unspecified)
inactive: IC50 [9] > 100 µM

CC(C)C(=O)N1CCN(c2nc(-c3ccccc3)c3c(c2C#N)CCCC3)CC1
active: AC50 [10] 14.4 µM | AC50 [11] 1.74 µM | AC50 [12] 7.76 µM | EC50 [14] 38.4 µM | AC50 [15] 6.09 µM | AC50 [16] 7.27 µM
inactive: IC50 [13] > 50 µM

CCOC(=O)c1ccccc1NC(=O)CSc1ccc(-c2ccccn2)nn1
> 120 µM (not active): EC50 [20]
active: EC50 [17] 10.8 µM | IC50 [18] 5.14 µM | AC50 [19] 62.6 µM | EC50 [21] 11.7 µM
